In patent publication US20260130885A1, “ANTIMICROBIAL COMPOSITIONS, PHARMACEUTICAL COMPOSITIONS AND USE THEREOF” (priority 2022, published 2026):
Where two headings read alike, the source gives them in different places.

Tested on: MRSA USA300
Assay: Antibacterial activity assay (MIC by broth microdilution, MBC by subculture)
Assay type: cell-based, Staphylococcus aureus
Experimental: The antimicrobial activity was based on MIC and MBC; MIC is the minimum inhibitory concentration and MBC is the minimum bactericidal concentration. The MIC of individual test agents against MRSA USA300 strains was determined using the broth microdilution method according to CLSI guidelines. Briefly, overnight bacterial cultures in LB medium were diluted 1:50 in fresh LB medium and incubated at 37° C. until reaching an OD600 of 0.5 to 0.6. Bacterial suspensions were diluted to a final concentration of 5×10^5 cfu/mL in fresh CAMHB and then exposed to each test agent at increasing doses in triplicate in 96-well plates for 24 hours at 37° C. The MIC of each agent was defined as the lowest concentration without visible bacterial growth. […] The lowest broth dilution that had no viable bacteria was considered the MBC.
Then, the combination effect was measured by calculating their corresponding fractional inhibitory concentration index (FICI) with the equation ΣFIC (FICi)=FICA+FICB=(CombA/MICA)+(CombB/MICB), where MICA and MICB are the MICs of drugs A and B alone, respectively, and CombA and CombB are the concentrations of drugs A and B in combination, respectively. […] was defined as an FICI≤0.5, no interaction was defined as an FICI>0.5-4.0, and antagonism was defined as an FICI>4.

[1] = Staphylococcus aureus, amide compound alone, read-out: MBC
[2] = Staphylococcus aureus, amide compound alone, read-out: MIC

MIC (+8 mg/L DHA)	MIC [2]	MIC (Staphylococcus aureus, fatty acid alone, read-out: MIC fatty acid)	Compound	MBC [1]	MBC (Staphylococcus aureus, fatty acid alone, read-out: MBC fatty acid)	MBC (+8 mg/L DHA)
>64 µg/mL	> 64 µg/mL	–	O=C(Nc1ccccc1)C(CCCl)C(=O)Nc1ccccc1 [SC5022]	> 64 µg/mL	–	>64 µg/mL
16 µg/mL	> 64 µg/mL	–	O=C(Nc1cccc(C(F)(F)F)c1)C(CCCl)C(=O)Nc1cccc(C(F)(F)F)c1 [SC5023]	> 64 µg/mL	–	16 µg/mL
8 µg/mL	> 64 µg/mL	–	O=C(Nc1ccc(OC(F)(F)F)cc1)C(CCCl)C(=O)Nc1ccc(OC(F)(F)F)cc1 [SC5024]	> 64 µg/mL	–	8 µg/mL
2 µg/mL	16 µg/mL	–	O=C(Nc1cc(Cl)cc(Cl)c1)C(CCCl)C(=O)Nc1cc(Cl)cc(Cl)c1 [SC5025]	32 µg/mL	–	2 µg/mL
>64 µg/mL	> 64 µg/mL	–	C#Cc1cccc(NC(=O)C(CCCl)C(=O)Nc2cccc(C#C)c2)c1 [SC5026]	> 64 µg/mL	–	>64 µg/mL
64 µg/mL	> 64 µg/mL	–	O=C(Nc1cccc(Cl)c1)C(CCCl)C(=O)Nc1cccc(Cl)c1 [SC5027]	> 64 µg/mL	–	>64 µg/mL
1 µg/mL	16 µg/mL	–	O=C(Nc1cc(Cl)cc(Cl)c1)C(CCCl)C(=O)Nc1ccc(Cl)c(C(F)(F)F)c1 (stereo not drawn) [SC5035]	32 µg/mL	–	2 µg/mL
0.0039 µg/mL	1 µg/mL	–	C=CCC(C(=O)Nc1ccc(Cl)c(C(F)(F)F)c1)C(=O)Nc1ccc(Cl)c(C(F)(F)F)c1 [SC5037]	2 µg/mL	–	0.0078 µg/mL
>64 µg/mL	> 64 µg/mL	–	C#Cc1cccc(NC(=O)C(CC=C)C(=O)Nc2cccc(C#C)c2)c1 [SC5038]	> 64 µg/mL	–	>64 µg/mL
0.0039 µg/mL	1 µg/mL	–	C=CCC(C(=O)Nc1cc(Cl)cc(Cl)c1)C(=O)Nc1cc(Cl)cc(Cl)c1 [SC5040]	2 µg/mL	–	0.125 µg/mL

Second part, the compound before the results:

Compound	MIC (+8 mg/L DHA)	MIC [2]	MIC (Staphylococcus aureus, fatty acid alone, read-out: MIC fatty acid)	MBC [1]	MBC (Staphylococcus aureus, fatty acid alone, read-out: MBC fatty acid)	MBC (+8 mg/L DHA)
O=C(Nc1ccc2c(c1)OCO2)Nc1ccc(Cl)c(C(F)(F)F)c1 [1-159, reference compound]	0.125 µg/mL	32 µg/mL	–	64 µg/mL	–	–
O=C(Nc1ccc(Cl)c(C(F)(F)F)c1)Nc1cccc(OF)c1OF [1-164, reference compound]	0.03125 µg/mL	0.25 µg/mL	–	4 µg/mL	–	–
O=C(Nc1ccc(Oc2ccccc2)cc1)Nc1ccc(Cl)c(C(F)(F)F)c1 [3-006, reference compound]	0.0078 µg/mL	0.125 µg/mL	–	1 µg/mL	–	–
CC/C=C\C/C=C\C/C=C\C/C=C\C/C=C\CCCC(=O)O [Eicosapentaenoic acid, eicosapentaenoic acid]	–	–	64 µg/mL	–	1020 µg/mL	–
FC(F)(F)c1cc(Nc2cncc(Nc3ccc(Cl)c(C(F)(F)F)c3)n2)ccc1Cl [SC5010]	>64 µg/mL	> 64 µg/mL	–	> 64 µg/mL	–	>64 µg/mL
C#Cc1cccc(Nc2cncc(Nc3cccc(C#C)c3)n2)c1 [SC5015]	>64 µg/mL	> 64 µg/mL	–	> 64 µg/mL	–	>64 µg/mL
O=C(Nc1ccc(Cl)c(C(F)(F)F)c1)C1(C(=O)Nc2ccc(Cl)c(C(F)(F)F)c2)CC1 [SC5020]	0.125 µg/mL	> 64 µg/mL	–	> 64 µg/mL	–	0.125 µg/mL
C#Cc1cccc(NC(=O)C2(C(=O)Nc3cccc(C#C)c3)CC2)c1 [SC5021]	64 µg/mL	> 64 µg/mL	–	> 64 µg/mL	–	64 µg/mL
O=C(Nc1ccc([N+](=O)[O-])c(C(F)(F)F)c1)C(CCCl)C(=O)Nc1ccc([N+](=O)[O-])c(C(F)(F)F)c1 [SC5034]	1 µg/mL	16 µg/mL	–	32 µg/mL	–	1 µg/mL
O=C(Nc1cc(Cl)cc(Cl)c1)C(CCCl)C(=O)Nc1ccc([N+](=O)[O-])c(C(F)(F)F)c1 (stereo not drawn) [SC5041]	0.0625 µg/mL	0.5 µg/mL	–	2 µg/mL	–	0.0625 µg/mL
